A short description of data set [1]: Change of plasma concentration of drug in rat (half life of the disappearance after intravenous administration). The class given is in vivo. Particulars: Jcl-SD male rats, 0.5 to 2 mg/kg, plasma concentration of unchanged compound. As to the method: Experiment 3 Change of Plasma Concentration of Drug in Rat
Compound (0.5 to 2 mg/kg) was administered intravenously to Jcl-SD male rats. The concentration of the unchanged compound was measured at 2, 5, 15, 30, 60, 120, and 240 min after the administration by the use of HPLC (determination limit; 0.05 μg/ml) and LC/MS/MS (determination limit; 0.001 μg/ml) and the half life of the disappearance was calculated. [drawing 387]

For data set [2], the target named is T1, PGD2 receptor (Homo sapiens, UniProt Q13258).
T1 construct: Peripheral blood was collected from a healthy volunteer; endogenous in cells; host or cells: washed human platelets from peripheral blood of a healthy volunteer
T1 sequence (Q13258 1-359): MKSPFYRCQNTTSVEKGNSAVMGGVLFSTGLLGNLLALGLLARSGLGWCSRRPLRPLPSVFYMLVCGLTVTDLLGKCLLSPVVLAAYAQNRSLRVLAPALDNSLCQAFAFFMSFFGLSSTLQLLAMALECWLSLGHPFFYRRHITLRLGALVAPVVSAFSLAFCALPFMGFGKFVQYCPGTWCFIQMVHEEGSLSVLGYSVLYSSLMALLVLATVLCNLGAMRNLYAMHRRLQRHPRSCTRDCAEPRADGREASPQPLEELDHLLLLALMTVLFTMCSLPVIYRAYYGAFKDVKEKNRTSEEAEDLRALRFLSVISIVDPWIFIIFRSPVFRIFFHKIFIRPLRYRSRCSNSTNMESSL
As to the kind of experiment: Antagonistic activity against PGD2 receptor using human platelet (inhibition of PGD2-induced cAMP increase). Type of data set: cell-based. Particulars: 0.1 μM PGD2, cAMP by radioimmunoassay, read-out: Inhibitory activity for the increase of cAMP caused by PGD2 in human platelet IC50. As to the method:
Experiment 2 Evaluation of Antagonistic Activity Against PGD2 Receptor Using Human Platelet
Peripheral blood was collected from a healthy volunteer using a syringe in which 1/9 volume of a citric acid/dextrose solution was previously added. The sample was subjected to centrifugation at 1200 rpm for 10 min to obtain the supernatant (PRP: platelet rich plasma). The resultant PRP was washed 3 times with a washing buffer and the number of platelets was counted with a micro cell counter. A suspension adjusted to contain the platelets at a final concentration of 5×10^8/ml was warmed at 37° C., then subjected to the pre-treatment with 3-isobutyl-1-methylxanthine (0.5 mM) for 5 min. To the suspension was added a test compound diluted at various concentration, and 10 minutes later, 0.1 μM PGD2 was added to induce the reaction 2 minutes later, hydrochloric acid was added to terminate the reaction. The platelet was destroyed with an ultrasonic homogenizer. After centrifugation, the cAMP in the supernatant was determined by radioimmunoassay.

The target in data set [3] is T1, PGD2 receptor. As to the kind of experiment: Binding activity to PGD2 receptor (human platelet membrane fraction, [3H]PGD2). Particulars: 5 nM [3H]PGD2, 4° C., 90 min. As to the method: Experiment 1 Binding Activity to PGD2 Receptor
(1) Preparation of Human Platelet Membrane Fraction
Blood was collected using a plastic syringe containing 3.8% sodium citrate from the vein of healthy volunteers (adult male and female), then put into a plastic test tube and mixed by slow-reversion. The sample was then centrifuged at 1800 rpm, for 10 min at room temperature, and the supernatant containing PRP (platelet-rich plasma) was collected. The PRP was re-centrifuged at 2300 rpm, for 22 min at room temperature to obtain platelets. The platelets were homogenized using a homogenizer (Ultra-Turrax) followed by centrifugation 3 times at 20,000 rpm, 10 min at 4° C. to obtain a platelet membrane fraction. After protein determination, the membrane fraction was adjusted to 2 mg/ml and preserved in a refrigerator at −80° C. until using for the binding test.
(2) Binding to PGD2 Receptor
To a binding-reaction solution (50 mM Tris/HCl, pH 7.4, 5 mM MgCl2) (0.2 ml) were added the human platelet membrane fraction (0.1 mg) and 5 nM [^3H]PGD2 (115 Ci/mmol), and the mixture was reacted at 4° C. for 90 min. After the reaction, the mixture was filtered through a glass fiber filter paper and washed several times with cooled physiological saline, then the radioactivity retained on the filter paper was measured. The specific-binding ratio was calculated by subtracting the non-specific binding ratio which is the radioactivity similarly measured in the presence of 10 μM PGD2 from the total binding. The inhibitory activity of each compound was expressed as the concentration required for 50% inhibition (IC50), which was determined by depicting a substitution curve by plotting the binding ratio (%) in the presence of each compound, where the binding ratio in the absence of a test compound is 100%.

The structures appear in SMILES notation.

Regarding `CC1(C)[C@H]2C[C@H](CCCC/C=C/C(=O)O)[C@@H](NC(=O)c3ccsc3)[C@@H]1C2` [IIa-4], the half-life (as a rule, how long it takes for the measured level to halve) in data set [1] came to 21.6 min. In data set [2], the IC50 (as a rule, the concentration that inhibits the measured activity by half) was determined as 19 nM.
Consider `CC1(C)[C@H]2C[C@H](CCCC/C=C/C(=O)O)[C@@H](NC(=O)c3csc4ccccc34)[C@@H]1C2` [IIa-17], for which, in data set [2], the half-maximal inhibitory concentration (IC50) is 15 nM.
Consider `CC1(C)[C@H]2C[C@H](CCCC/C=C/C(=O)O)[C@@H](NC(=O)c3csc4cc(O)ccc34)[C@@H]1C2` [IIa-22], for which, in data set [2], the IC50 worked out at 3.7 nM.
Consider `CC1(C)[C@H]2C[C@H](CCCC/C=C/C(=O)O)[C@@H](NC(=O)c3csc4ccc(O)cc34)[C@@H]1C2` [IIa-23], for which the 50% inhibitory concentration (IC50) in data set [2] was 2.5 nM; in data set [3], 33 nM.
Regarding `CC1(C)[C@H]2C[C@H](CCCC/C=C/C(=O)O)[C@@H](NC(=O)c3csc4ccc(F)cc34)[C@@H]1C2` [IIa-28], the IC50 in data set [2] worked out at 16 nM.
Take `CC1(C)[C@H]2C[C@H](CCCC/C=C/C(=O)O)[C@@H](NC(=O)c3cccc4ccsc34)[C@@H]1C2` [IIa-34]: the melting point (commonly the temperature of the solid-liquid transition) is 141 to 142 °C. This compound also came in with a half-life in data set [1] of 34.6 min. Further, the IC50 in data set [2] was found to be 14 nM.
Taken in the same sequence, the figures for `CC1(C)[C@H]2C[C@H](CCCC/C=C/C(=O)O)[C@@H](NC(=O)c3coc4ccc(O)cc34)[C@@H]1C2` [IIa-52] were 159 to 160 °C, 16.7 min and 3.7 nM.
As for `CC1(C)[C@H]2C[C@H](CCCC/C=C/C(=O)O)[C@@H](NC(=O)c3coc4cc(F)ccc34)[C@@H]1C2` [IIa-54], in data set [2], the IC50 was 15 nM.
As for `CC1(C)[C@H]2C[C@H](CCCC/C=C/C(=O)O)[C@@H](NC(=O)c3cc4ccsc4[nH]3)[C@@H]1C2` [IIa-66], the IC50 in data set [2] amounted to 17 nM.
`CC1(C)[C@H]2C[C@H](CCCCOCC(=O)O)[C@@H](NC(=O)c3ccsc3)[C@@H]1C2` [IIc-4] registered a half-life in data set [1] of 44.3 min. Also, the IC50 in data set [2] came out at 18 nM.
`CC1(C)[C@H]2C[C@H](CCCCOCC(=O)O)[C@@H](NC(=O)c3csc4ccccc34)[C@@H]1C2` [IIc-17] came in with a melting point of 125 to 126 °C. For the same compound, the IC50 in data set [2] stood at 5.4 nM.
In turn, `Cc1ccc2scc(C(=O)N[C@@H]3[C@@H](CCCCOCC(=O)O)C[C@H]4C[C@@H]3C4(C)C)c2c1` [IIc-20] yielded a melting point of 87 to 90 °C. In addition, the IC50 in data set [2] came out at 15 nM.
As for `CC1(C)[C@H]2C[C@H](CCCCOCC(=O)O)[C@@H](NC(=O)c3csc4cc(O)ccc34)[C@@H]1C2` [IIc-22], the IC50 in data set [2] worked out at 4.6 nM.
Take `CC1(C)[C@H]2C[C@H](CCCCOCC(=O)O)[C@@H](NC(=O)c3csc4ccc(O)cc34)[C@@H]1C2` [IIc-23]: the IC50 in data set [2] came to 4.9 nM; in data set [3], 9.5 nM.
As to `CC1(C)[C@H]2C[C@H](CCCCOCC(=O)O)[C@@H](NC(=O)c3csc4cccc(O)c34)[C@@H]1C2` [IIc-24], the IC50 in data set [2] came to 13 nM.
`CC1(C)[C@H]2C[C@H](CCCCOCC(=O)O)[C@@H](NC(=O)c3csc4ccc(F)cc34)[C@@H]1C2` [IIc-28] displayed a melting point of 144 to 146 °C. Also, the IC50 in data set [2] is 13 nM.
Compound `CC1(C)[C@H]2C[C@H](CCCCOCC(=O)O)[C@@H](NC(=O)c3cccc4ccsc34)[C@@H]1C2` [IIc-34] had a melting point of 95 to 96 °C. In data set [1], this compound came in with a half-life of 66.7 min. The IC50 in data set [2] worked out at 11 nM.
For the compound `Cc1cc(O)cc2c(C(=O)N[C@@H]3[C@@H](CCCCOCC(=O)O)C[C@H]4C[C@@H]3C4(C)C)coc12` [IIc-81], the half-inhibitory concentration (IC50) in data set [2] came out at 8 nM.
Same read-out and setting: next, `CC1(C)[C@H]2C[C@H](CCCCOCC(=O)O)[C@@H](NC(=O)c3csc4ccc(NC(N)=O)cc34)[C@@H]1C2` [IIc-86]: 8 nM.
Turning to `CC1(C)[C@H]2C[C@H](CCCCOCC(=O)O)[C@@H](NC(=O)c3csc4ccc(CNS(C)(=O)=O)cc34)[C@@H]1C2` [IIc-96], in data set [2], the IC50 amounted to 17 nM.
For the compound `CC1(C)[C@H]2C[C@H](CCCCOCC(=O)O)[C@@H](NC(=O)c3csc4ccc(CNC(N)=O)cc34)[C@@H]1C2` [IIc-97], the IC50 in data set [2] amounted to 11 nM.
`CC1(C)[C@H]2C[C@H](CCCCOCC(=O)O)[C@@H](NC(=O)c3csc4ccc(C(N)=O)cc34)[C@@H]1C2` [IIc-99] displayed a melting point of 164 to 166 °C. For the same compound, the IC50 in data set [2] is 6 nM.
Turning to `CC1(C)[C@H]2C[C@H](CCCCOCC(=O)O)[C@@H](NC(=O)c3csc4cc(F)c(O)cc34)[C@@H]1C2` [IIc-128], the IC50 in data set [2] was determined as 5 nM.
`COc1cc2c(C(=O)N[C@@H]3[C@@H](CCCCOCC(=O)O)C[C@H]4C[C@@H]3C4(C)C)csc2cc1F` [IIc-129]: the IC50 in data set [2] amounted to 18 nM.
Same read-out and setting: the value for `CC1(C)[C@H]2C[C@H](CCCCOCC(=O)O)[C@@H](NC(=O)c3coc4ccc(NC(N)=O)cc34)[C@@H]1C2` [IIc-135] was 3 nM; that for `CC1(C)[C@H]2C[C@H](CCCCSCC(=O)O)[C@@H](NC(=O)c3csc4cc(O)ccc34)[C@@H]1C2` [IIe-22] was 4.8 nM; that for `CC1(C)[C@H]2C[C@H](CCCCSCC(=O)O)[C@@H](NC(=O)c3csc4cccc(O)c34)[C@@H]1C2` [IIe-24] was 5.7 nM.
The compound `CC1(C)[C@H]2C[C@H](CCCCSCC(=O)O)[C@@H](NC(=O)c3csc4ccc(F)cc34)[C@@H]1C2` [IIe-28] showed a melting point of 197 to 199 °C. Also, the IC50 in data set [2] stood at 17 nM.
In turn, `CC1(C)[C@H]2C[C@H](CCCCSCC(=O)O)[C@@H](NC(=O)c3cccc4ccsc34)[C@@H]1C2` [IIe-34] displayed a melting point of 143 to 144 °C. Besides, in data set [2], the IC50 was determined as 19 nM.
Regarding `CCOC(=O)Nc1ccc2scc(C(=O)N[C@@H]3[C@@H](CCCCC(=O)O)C[C@H]4C[C@@H]3C4(C)C)c2c1` [IIf-84], in data set [2], the IC50 was determined as 20 nM.
In turn, `O=C(O)/C=C/CCCC[C@H]1[C@@H]2CC[C@@H](C2)[C@@H]1NC(=O)c1csc2ccccc12` [Ia-17] had a melting point of 155 to 157 °C. Further, the IC50 in data set [2] worked out at 11 nM.
Taken in the same sequence, the figures for `Cc1ccc2scc(C(=O)N[C@H]3[C@H]4CC[C@H](C4)[C@@H]3CCCC/C=C/C(=O)O)c2c1` [Ia-20] were 129 to 131 °C and 17 nM.
With `O=C(O)/C=C/CCCC[C@H]1[C@@H]2CC[C@@H](C2)[C@@H]1NC(=O)c1cc2sccc2[nH]1` [Ia-65], the IC50 in data set [2] was found to be 18 nM.
In turn, `O=C(O)COCCCC[C@H]1[C@@H]2CC[C@@H](C2)[C@@H]1NC(=O)c1csc2cc(O)ccc12` [Ic-22] returned a melting point of 76 to 79 °C. Moreover, the IC50 in data set [2] was determined as 10 nM.
`O=C(O)COCCCC[C@H]1[C@@H]2CC[C@@H](C2)[C@@H]1NC(=O)c1csc2ccc(O)cc12` [Ic-23]: the melting point fell in the range of 149 to 151 °C. In data set [2], the IC50 was 10 nM.
`CC1(C)[C@H]2C[C@H](C/C=C\CCCC(=O)O)[C@@H](NC(=O)c3ccsc3)[C@@H]1C2` [Reference compound 1, reference compound] registered a half-life in data set [1] of 8 min.
`CC1(C)[C@H]2C[C@H](C/C=C\CCCC(=O)O)[C@@H](NC(=O)c3cccc4ccsc34)[C@@H]1C2` [Reference compound 2, reference compound] displayed a half-life in data set [1] of 17 min.
`CC1(C)[C@H]2C[C@H](C/C=C\CCCC(=O)O)[C@@H](NC(=O)c3coc4ccc(O)cc34)[C@@H]1C2` [Reference compound 3]: the half-life in data set [1] stood at 8.7 min. This half-life lies about 2-fold lower than the previous one.
